Experimental data reported in PubChem BioAssay AID248 (DTP/NCI, 2004).
Where “and” joins values, the source holds several entries; their conditions need not be identical. Equal values may be shown once. Toxic doses and inconclusive results are not listed. No stated cut-off is given here; in the data, active means T/C of 150% or more; inactive means T/C below 125%.

System: L1210 leukemia ip in BDF1 mice, survival T/C
Experiment: NCI In Vivo Anticancer Drug Screen. Data for tumor model L1210 Leukemia (intraperitoneal) in B6D2F1 (BDF1) mice
Conditions: endpoint: mean survival time, higher = longer survival
How it was run: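 Transplantable tumor model; survival measured in treated vs vehicle control mice. Value = treated/control.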

[1] = dose: 100.0 mg/kg/injection, schedule: Q01DX009 (ip), vehicle: saline with Tween-80
[2] = dose: 200.0 mg/kg/injection, schedule: Q01DX009 (ip), vehicle: saline with Tween-80
[3] = dose: 50.0 mg/kg/injection, schedule: Q01DX001 (ip), vehicle: saline
[4] = dose: 100.0 mg/kg/injection, schedule: Q01DX001 (ip), vehicle: saline
[5] = dose: 200.0 mg/kg/injection, schedule: Q01DX001 (ip), vehicle: saline
[6] = dose: 400.0 mg/kg/injection, schedule: Q01DX001 (ip), vehicle: saline
[7] = dose: 50.0 mg/kg/injection, schedule: Q01DX009 (ip), vehicle: saline
[8] = dose: 100.0 mg/kg/injection, schedule: Q04DX003 (ip), vehicle: saline
[9] = dose: 200.0 mg/kg/injection, schedule: Q04DX003 (ip), vehicle: saline
[10] = dose: 400.0 mg/kg/injection, schedule: Q04DX003 (ip), vehicle: saline
[11] = dose: 100.0 mg/kg/injection, schedule: Q04DX003 (ip), vehicle: Klucel (hydroxypropylcellulose) (HPC)
[12] = dose: 200.0 mg/kg/injection, schedule: Q04DX003 (ip), vehicle: Klucel (hydroxypropylcellulose) (HPC)
[13] = dose: 400.0 mg/kg/injection, schedule: Q04DX003 (ip), vehicle: Klucel (hydroxypropylcellulose) (HPC)
[14] = dose: 100.0 mg/kg/injection, schedule: Q01DX009 (ip), vehicle: Klucel (hydroxypropylcellulose) (HPC)
[15] = dose: 200.0 mg/kg/injection, schedule: Q01DX009 (ip), vehicle: Klucel (hydroxypropylcellulose) (HPC)
[16] = dose: 10.0 mg/kg/injection, schedule: Q01DX001 (ip), vehicle: saline
[17] = dose: 20.0 mg/kg/injection, schedule: Q01DX001 (ip), vehicle: saline
[18] = dose: 40.0 mg/kg/injection, schedule: Q01DX001 (ip), vehicle: saline
[19] = dose: 100.0 mg/kg/injection, schedule: Q01DX001 (ip), vehicle: Klucel (hydroxypropylcellulose) (HPC)
[20] = dose: 200.0 mg/kg/injection, schedule: Q01DX001 (ip), vehicle: Klucel (hydroxypropylcellulose) (HPC)

Measured: T/C

CC(CCC(=O)O)C1CCC2C3CCC4CC(OC=O)CCC4(C)C3CC(OC=O)C12C (stereo unspecified)
inactive: dose: 50.0 mg/kg/injection, schedule: Q01DX009 (ip), vehicle: saline with Tween-80 101 % of control | [1] 92 % of control | dose: 100.0 mg/kg/injection, schedule: Q04DX003 (ip), vehicle: saline with Tween-80 96 % of control | [2] 105 % of control

CN1NCc2cncnc21
inactive: [3] 97 % of control | [4] 103 % of control | [5] 101 % of control | [6] 103 % of control

Nc1nc2c(c(-c3ccc(Cl)cc3)n1)CN(Cc1ccccc1)C2=O
inactive: [7] 98 % of control | dose: 100.0 mg/kg/injection, schedule: Q01DX009 (ip), vehicle: saline 104 % of control | [8] 101 % of control | dose: 200.0 mg/kg/injection, schedule: Q01DX009 (ip), vehicle: saline 106 % of control | [9] 100 % of control | [10] 89 % of control

CC1(COC(=O)Nc2cccc3ccccc23)CC2C=CC1C2 (stereo unspecified)
inactive: dose: 75.0 mg/kg/injection, schedule: Q01DX001 (ip), vehicle: saline with Tween-80 96 % of control | dose: 150.0 mg/kg/injection, schedule: Q01DX001 (ip), vehicle: saline with Tween-80 91 % of control | dose: 300.0 mg/kg/injection, schedule: Q01DX001 (ip), vehicle: saline with Tween-80 88 % of control

O=[N+]([O-])c1cccc(S(=O)(=O)NNc2cccc(C(F)(F)F)c2)c1
inactive: [11] 99 % of control | [12] 94 % of control | [13] 89 % of control

COc1ccc(-c2c3c(cc4cc(OC)c(OC)cc24)C(=O)OC3=O)cc1OC
inactive: dose: 100.0 mg/kg/injection, schedule: Q01DX001 (ip), vehicle: carboxymethylcellulose (CMC) 93 % of control | dose: 200.0 mg/kg/injection, schedule: Q01DX001 (ip), vehicle: carboxymethylcellulose (CMC) 89 % of control | dose: 400.0 mg/kg/injection, schedule: Q01DX001 (ip), vehicle: carboxymethylcellulose (CMC) 89 % of control

CC12CC3CC(C)(C1)CC(N)(C3)C2
inactive: dose: 50.0 mg/kg/injection, schedule: Q01DX001 (ip), vehicle: carboxymethylcellulose (CMC) 98 % of control

O=C1NNC(=O)C2C3CCC(C3)C12 (stereo unspecified)
inactive: [7] 98 % of control

Oc1ccc(/C=N\Nc2ccccn2)c(O)c1
inactive: [14] 88 % of control | [15] 91 % of control

CN1C2CCC1C(O)C(c1ccccc1)C2 (stereo unspecified)
inactive: [16] 106 % of control | [17] 101 % of control | [18] 106 % of control

CCOC(=O)/C=C\n1c(=O)cc(C)c2cc3c(C)cc(=O)n(C)c3cc21
inactive: dose: 50.0 mg/kg/injection, schedule: Q01DX001 (ip), vehicle: Klucel (hydroxypropylcellulose) (HPC) 99 % of control | [19] 87 % of control | [20] 92 % of control

COc1cc(OC)c(/C=C/c2ccc3ccccc3[n+]2C)c(OC)c1
inactive: dose: 0.5 mg/kg/injection, schedule: Q01DX009 (oral), vehicle: carboxymethylcellulose (CMC) 104 % of control | dose: 1.0 mg/kg/injection, schedule: Q01DX009 (oral), vehicle: carboxymethylcellulose (CMC) 103 % of control | dose: 2.0 mg/kg/injection, schedule: Q01DX009 (oral), vehicle: carboxymethylcellulose (CMC) 111 % of control | dose: 4.0 mg/kg/injection, schedule: Q01DX009 (oral), vehicle: carboxymethylcellulose (CMC) 103 % of control | dose: 8.0 mg/kg/injection, schedule: Q01DX009 (oral), vehicle: carboxymethylcellulose (CMC) 103 % of control | dose: 31.3 micrograms/kg/injection, schedule: Q04DX003 (ip), vehicle: saline 100 % of control | dose: 62.5 micrograms/kg/injection, schedule: Q04DX003 (ip), vehicle: saline 101 % of control | dose: 125.0 micrograms/kg/injection, schedule: Q04DX003 (ip), vehicle: saline 95 % of control

CCN(CC)CCNC(C)=O
inactive: [8] 104 % of control | [9] 101 % of control | [10] 97 % of control

Nc1nc(C=O)c(-c2cccc3ccccc23)c(=O)[nH]1
inactive: [1] 112 % of control | [2] 94 % of control

CCCCN(C(C)=O)c1ccccc1
inactive: [19] 97 % of control | [20] 91 % of control | dose: 400.0 mg/kg/injection, schedule: Q01DX001 (ip), vehicle: Klucel (hydroxypropylcellulose) (HPC) 94 % of control

NS(=O)(=O)c1ccc(S(=O)(=O)NC2CCCCC2)cc1
inactive: [14] 101 % of control | [15] 101 % of control

[O-]/[N+](=C\c1ccc(/C=[N+](\[O-])c2ccccc2)cc1)c1ccccc1
inactive: dose: 5.0 mg/kg/injection, schedule: Q01DX001 (ip), vehicle: saline 97 % of control | [16] 95 % of control | [17] 97 % of control | [18] 92 % of control | dose: 80.0 mg/kg/injection, schedule: Q01DX001 (ip), vehicle: saline 97 % of control

[O-][n+]1c2ccccc2nc2cc(Cl)ccc21
inactive: [11] 107 % of control | [12] 100 % of control | [13] 96 % of control

Cc1nc2[nH]c(=O)[nH]c(=O)c2nc1C
inactive: dose: 16.0 mg/kg/injection, schedule: Q01DX Z (ip), vehicle: methylcellulose (MC) 100 % of control | dose: 31.0 mg/kg/injection, schedule: Q01DX Z (ip), vehicle: methylcellulose (MC) 95 % of control | dose: 62.0 mg/kg/injection, schedule: Q01DX Z (ip), vehicle: methylcellulose (MC) 87 % of control | dose: 100.0 mg/kg/injection, schedule: Q01DX001 (ip), vehicle: other 104 % of control | dose: 100.0 mg/kg/injection, schedule: Q04DX003 (ip), vehicle: other 96 % of control | dose: 125.0 mg/kg/injection, schedule: Q01DX Z (ip), vehicle: methylcellulose (MC) 92 % of control and 93 % of control | dose: 200.0 mg/kg/injection, schedule: Q01DX001 (ip), vehicle: other 107 % of control | dose: 200.0 mg/kg/injection, schedule: Q04DX003 (ip), vehicle: other 104 % of control | dose: 250.0 mg/kg/injection, schedule: Q01DX Z (ip), vehicle: methylcellulose (MC) 89 % of control | dose: 400.0 mg/kg/injection, schedule: Q01DX001 (ip), vehicle: other 102 % of control | dose: 400.0 mg/kg/injection, schedule: Q04DX003 (ip), vehicle: other 96 % of control | dose: 500.0 mg/kg/injection, schedule: Q01DX Z (ip), vehicle: methylcellulose (MC) 89 % of control

CNC(=O)Oc1cccc(N(C)C)c1
inactive: dose: 9.5 mg/kg/injection, schedule: Q01DX001 (ip), vehicle: other 100 % of control | dose: 19.0 mg/kg/injection, schedule: Q01DX001 (ip), vehicle: other 98 % of control

c1cc2c3c(ccc4c3c1CCC4)CCC2
inactive: dose: 100.0 mg/kg/injection, schedule: Q04DX002 (ip), vehicle: gum acacia 91 % of control | dose: 200.0 mg/kg/injection, schedule: Q04DX002 (ip), vehicle: gum acacia 100 % of control | dose: 400.0 mg/kg/injection, schedule: Q04DX002 (ip), vehicle: gum acacia 95 % of control

COc1cccc(C2NC(=O)CCC2[N+](=O)[O-])c1OC (stereo unspecified)
inactive: dose: 100.0 mg/kg/injection, schedule: Q04DX002 (ip), vehicle: saline with Tween-80 105 % of control | dose: 200.0 mg/kg/injection, schedule: Q04DX002 (ip), vehicle: saline with Tween-80 102 % of control | dose: 400.0 mg/kg/injection, schedule: Q04DX002 (ip), vehicle: saline with Tween-80 94 % of control

COc1ccc(NP2(=O)OCC(C)([N+](=O)[O-])CO2)cc1 (stereo unspecified)
inactive: [3] 98 % of control | [4] 102 % of control | [5] 98 % of control | [6] 96 % of control

CC(C)OC(=O)Cc1cccc2ccccc12
inactive: dose: 222.0 mg/kg/injection, schedule: Q01DX Z (ip), vehicle: saline 98 % of control | dose: 333.0 mg/kg/injection, schedule: Q01DX Z (ip), vehicle: saline 88 % of control | dose: 500.0 mg/kg/injection, schedule: Q01DX Z (ip), vehicle: saline 95 % of control
